One data set addresses T1, Nitric oxide synthase 3 (Homo sapiens, UniProt P29474).
T1 sequence (P29474 whole entry): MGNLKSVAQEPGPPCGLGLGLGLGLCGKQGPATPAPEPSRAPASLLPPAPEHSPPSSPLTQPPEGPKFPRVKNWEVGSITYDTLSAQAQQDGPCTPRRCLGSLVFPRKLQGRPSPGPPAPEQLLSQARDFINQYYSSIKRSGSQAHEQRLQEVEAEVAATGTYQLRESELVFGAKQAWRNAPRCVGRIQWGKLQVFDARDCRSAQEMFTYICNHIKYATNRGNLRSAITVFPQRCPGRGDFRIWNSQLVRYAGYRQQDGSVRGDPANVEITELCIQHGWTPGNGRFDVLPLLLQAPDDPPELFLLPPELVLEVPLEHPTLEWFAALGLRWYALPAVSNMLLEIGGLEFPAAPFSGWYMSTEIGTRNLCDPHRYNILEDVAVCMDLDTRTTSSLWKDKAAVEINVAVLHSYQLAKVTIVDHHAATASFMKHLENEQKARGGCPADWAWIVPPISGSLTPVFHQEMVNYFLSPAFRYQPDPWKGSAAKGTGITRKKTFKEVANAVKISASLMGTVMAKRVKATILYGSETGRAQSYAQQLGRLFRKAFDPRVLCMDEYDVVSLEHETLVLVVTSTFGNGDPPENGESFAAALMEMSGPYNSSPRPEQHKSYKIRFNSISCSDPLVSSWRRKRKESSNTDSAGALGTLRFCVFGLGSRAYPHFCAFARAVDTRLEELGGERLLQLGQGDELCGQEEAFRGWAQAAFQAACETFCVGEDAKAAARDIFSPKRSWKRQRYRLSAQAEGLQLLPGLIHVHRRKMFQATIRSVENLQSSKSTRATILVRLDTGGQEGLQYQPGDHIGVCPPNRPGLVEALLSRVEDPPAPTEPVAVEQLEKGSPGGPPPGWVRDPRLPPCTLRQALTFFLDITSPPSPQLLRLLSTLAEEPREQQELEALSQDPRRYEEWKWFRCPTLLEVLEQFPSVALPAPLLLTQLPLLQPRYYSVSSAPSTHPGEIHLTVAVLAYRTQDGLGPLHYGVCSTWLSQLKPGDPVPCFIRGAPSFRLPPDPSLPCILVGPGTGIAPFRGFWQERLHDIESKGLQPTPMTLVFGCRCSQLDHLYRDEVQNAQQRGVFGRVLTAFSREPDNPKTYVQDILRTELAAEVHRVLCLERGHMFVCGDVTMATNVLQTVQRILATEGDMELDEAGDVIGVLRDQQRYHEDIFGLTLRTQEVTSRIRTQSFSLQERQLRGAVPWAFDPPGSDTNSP
Put plainly: Inhibition of human eNOS expressed in HEK293 cells assessed as NO production by 2,3-diaminonapthalene-based fluorescence assay. It is filed as cell-based.

The species named for a further data set is Homo sapiens. Kind of data set: Selectivity ratio of IC50 for human eNOS to IC50 for human iNOS.
For another data set, the target named is Nitric oxide synthase 1 (Homo sapiens, UniProt P29475). Kind of data set: Inhibition of human nNOS expressed in HEK293 cells assessed as NO production by 2,3-diaminonapthalene-based fluorescence assay. It is filed as cell-based.
Data set [1] addresses Nitric oxide synthase, inducible (Homo sapiens, UniProt P35228). Put plainly: Inhibition of human iNOS expressed in HEK293 cells assessed as NO production by 2,3-diaminonapthalene-based fluorescence assay. Format: cell-based.
Data set [2] addresses Nitric oxide sythases; iNOS & nNOS (Homo sapiens) (UniProt P29475+P35228). Kind of data set: Selectivity ratio of IC50 for human nNOS to IC50 for human iNOS.
The target in data set [3] is T2, Nitric oxide synthase 3 (Homo sapiens) (UniProt P29474).
T2 sequence (whole entry): T1 sequence (P29474 whole entry)
Put plainly: Inhibition of human eNOS expressed in HEK293 cells assessed as NO production at 30 uM by 2,3-diaminonapthalene-based fluorescence assay. Format: cell-based.

A short description of data set [4]: Half life in mouse liver microsomes. It is filed as ADME, Microsome. A general note: Liver microsomes are a subcellular fraction often used to study metabolism.
A further data set relates to Mus musculus. Kind of data set: Antiinflammatory activity in mouse assessed as reduction in LPS-induced nitatre level in plasma at 30 mg/kg, po. It is filed as functional. Also on record: scale not given: the % may be the effect or the level left.

Nitric oxide synthase 1, sequence (P29475 whole entry): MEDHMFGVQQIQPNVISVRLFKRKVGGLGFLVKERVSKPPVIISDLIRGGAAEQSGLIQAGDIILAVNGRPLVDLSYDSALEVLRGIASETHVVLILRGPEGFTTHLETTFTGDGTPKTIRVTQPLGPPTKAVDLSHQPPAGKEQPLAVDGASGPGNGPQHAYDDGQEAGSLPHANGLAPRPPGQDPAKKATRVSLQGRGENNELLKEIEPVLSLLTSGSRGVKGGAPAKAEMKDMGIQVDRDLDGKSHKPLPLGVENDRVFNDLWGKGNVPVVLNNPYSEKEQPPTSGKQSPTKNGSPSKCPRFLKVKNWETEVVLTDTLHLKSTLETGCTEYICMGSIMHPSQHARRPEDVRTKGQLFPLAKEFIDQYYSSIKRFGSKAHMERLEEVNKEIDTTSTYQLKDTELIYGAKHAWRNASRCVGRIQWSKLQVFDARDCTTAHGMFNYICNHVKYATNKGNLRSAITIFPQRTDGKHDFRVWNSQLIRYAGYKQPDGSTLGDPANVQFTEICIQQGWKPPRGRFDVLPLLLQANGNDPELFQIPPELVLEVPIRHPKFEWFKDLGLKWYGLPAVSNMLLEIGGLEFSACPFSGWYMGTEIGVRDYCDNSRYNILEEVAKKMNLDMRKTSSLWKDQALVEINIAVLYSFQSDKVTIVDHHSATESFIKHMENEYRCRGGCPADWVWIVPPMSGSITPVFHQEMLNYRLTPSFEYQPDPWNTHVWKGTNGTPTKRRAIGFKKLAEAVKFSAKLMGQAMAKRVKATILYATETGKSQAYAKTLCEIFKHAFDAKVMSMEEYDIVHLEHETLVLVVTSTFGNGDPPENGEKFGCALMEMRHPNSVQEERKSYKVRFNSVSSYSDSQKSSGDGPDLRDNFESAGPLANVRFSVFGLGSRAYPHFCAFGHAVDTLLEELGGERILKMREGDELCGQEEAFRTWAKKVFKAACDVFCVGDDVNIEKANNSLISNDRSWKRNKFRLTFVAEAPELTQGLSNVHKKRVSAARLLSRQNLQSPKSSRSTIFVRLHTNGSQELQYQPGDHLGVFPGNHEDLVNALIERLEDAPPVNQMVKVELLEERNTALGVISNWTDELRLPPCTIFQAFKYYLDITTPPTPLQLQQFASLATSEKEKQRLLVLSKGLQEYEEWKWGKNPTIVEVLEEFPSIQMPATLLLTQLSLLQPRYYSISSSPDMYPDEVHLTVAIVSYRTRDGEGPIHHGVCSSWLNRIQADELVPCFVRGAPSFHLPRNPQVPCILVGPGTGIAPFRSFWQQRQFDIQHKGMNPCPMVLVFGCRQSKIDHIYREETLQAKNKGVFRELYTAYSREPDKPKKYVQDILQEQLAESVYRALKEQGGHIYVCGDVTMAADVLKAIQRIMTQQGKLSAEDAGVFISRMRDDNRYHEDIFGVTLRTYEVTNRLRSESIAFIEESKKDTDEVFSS
Nitric oxide sythases; iNOS & nNOS (Homo sapiens), sequence (P29475 whole entry, looked up): as the sequence (P29475 whole entry) above
Nitric oxide sythases; iNOS & nNOS (Homo sapiens), sequence (P35228 whole entry, looked up): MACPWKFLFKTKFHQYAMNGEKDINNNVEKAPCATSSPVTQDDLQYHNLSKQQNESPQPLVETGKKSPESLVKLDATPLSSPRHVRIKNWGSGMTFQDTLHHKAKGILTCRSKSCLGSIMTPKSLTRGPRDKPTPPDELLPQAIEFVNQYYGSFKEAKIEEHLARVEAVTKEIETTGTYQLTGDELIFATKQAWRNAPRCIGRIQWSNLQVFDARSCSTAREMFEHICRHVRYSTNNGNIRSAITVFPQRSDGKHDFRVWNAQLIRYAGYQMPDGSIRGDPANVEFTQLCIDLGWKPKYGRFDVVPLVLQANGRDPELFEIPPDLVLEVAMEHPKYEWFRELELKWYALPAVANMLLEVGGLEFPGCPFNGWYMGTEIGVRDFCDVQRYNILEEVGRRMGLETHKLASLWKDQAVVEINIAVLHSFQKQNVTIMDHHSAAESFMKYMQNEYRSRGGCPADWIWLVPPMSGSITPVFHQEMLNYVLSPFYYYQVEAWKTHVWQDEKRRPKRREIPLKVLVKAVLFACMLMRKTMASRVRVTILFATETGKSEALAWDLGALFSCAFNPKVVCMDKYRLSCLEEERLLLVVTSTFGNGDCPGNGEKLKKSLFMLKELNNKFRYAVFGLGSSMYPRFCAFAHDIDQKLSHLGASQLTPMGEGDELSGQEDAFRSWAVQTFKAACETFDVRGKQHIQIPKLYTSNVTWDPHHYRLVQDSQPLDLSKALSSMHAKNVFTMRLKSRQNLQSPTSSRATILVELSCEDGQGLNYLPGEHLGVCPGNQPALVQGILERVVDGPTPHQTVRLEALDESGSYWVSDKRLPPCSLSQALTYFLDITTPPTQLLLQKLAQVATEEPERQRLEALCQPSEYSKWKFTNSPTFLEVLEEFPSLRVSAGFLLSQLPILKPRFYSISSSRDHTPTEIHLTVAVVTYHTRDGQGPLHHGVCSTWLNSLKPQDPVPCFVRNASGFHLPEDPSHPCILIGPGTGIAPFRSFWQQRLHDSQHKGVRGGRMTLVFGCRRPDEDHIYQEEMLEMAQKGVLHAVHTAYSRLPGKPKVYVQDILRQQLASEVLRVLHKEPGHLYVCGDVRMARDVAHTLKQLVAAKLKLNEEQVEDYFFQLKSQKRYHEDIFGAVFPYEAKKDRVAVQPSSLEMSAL
Nitric oxide synthase, inducible, sequence (P35228 whole entry): as the sequence (P35228 whole entry, looked up) above

One may read the IC50 as the concentration that gives 50% inhibition. Take `O=c1cc(CN(Cc2ccccc2F)c2cnccn2)c2ccc(F)c(F)c2[nH]1`: the 50% inhibitory concentration (IC50) is 11 µM at Nitric oxide synthase 3, 0.064 µM at Nitric oxide synthase 1 and 0.012 µM in data set [1]. The figures for the Ratio IC50 (in the data set listed under Homo sapiens; in data set [2]) were 900 and 5, respectively.
`[O-][n+]1cc(CN(c2cccc(Cl)c2)c2ncccn2)c2ccc(F)c(F)c2c1`: the Ratio IC50 in the data set filed under Homo sapiens was above 1000; in data set [2], 9. Moreover, the half-inhibitory concentration (IC50) in data set [1] came out at 0.017 µM.
Take `O=c1cc(CN(c2cccnc2)c2cccc(Cl)c2)c2ccc(F)c(F)c2[nH]1`: the IC50 on Nitric oxide synthase 3 is 14 µM; on Nitric oxide synthase 1, 0.37 µM; in data set [1], 0.077 µM. The values for the Ratio IC50 (in the data set filed under Homo sapiens; in data set [2]) were 180 and 5, respectively.
In the case of `O=c1cc(CN(Cc2ccccc2)c2cnccn2)c2ccc(F)c(F)c2[nH]1`, the half-inhibitory concentration (IC50) at Nitric oxide synthase 3 was 6.4 µM; on Nitric oxide synthase 1, 0.1 µM; in data set [1], 0.013 µM. The Ratio IC50 in the data set filed under Homo sapiens stood at 500; in data set [2], 8.
By inhibition is commonly meant the percentage by which the read-out fell short of the control. As for `COc1cc(N(Cc2cc(=O)[nH]c3c(F)c(F)ccc23)c2cccc(Cl)c2)ncn1`, the half-maximal inhibitory concentration (IC50) at Nitric oxide synthase 3 was above 30 µM; on Nitric oxide synthase 1, 0.13 µM; in data set [1], 0.061 µM. In addition, the Ratio IC50 in the data set filed under Homo sapiens was above 500; in data set [2], 2. Also, the inhibition in data set [3] was below 50%.
In the case of `Cc1cc(N(Cc2cc(=O)[nH]c3c(F)c(F)ccc23)c2cccc(Cl)c2)ncn1`, the half-inhibitory concentration (IC50) was above 30 µM on Nitric oxide synthase 3, 0.16 µM at Nitric oxide synthase 1 and 0.053 µM in data set [1]. The Ratio IC50 in the data set filed under Homo sapiens is above 500; in data set [2] it was 3. In data set [3], the inhibition is below 50%.
For `O=c1cc(CN(c2cccc(Cl)c2)c2ccccn2)c2ccc(F)c(F)c2[nH]1`, the results for the IC50 (on Nitric oxide synthase 3; at Nitric oxide synthase 1; in data set [1]) were above 30 µM, 0.17 µM and 0.031 µM, respectively. Also, the Ratio IC50 in the data set listed under Homo sapiens was above 1000; in data set [2] it was 5. Moreover, the inhibition in data set [3] is below 50%.
`O=c1cc(CN(c2cccc(Cl)c2)c2ccncn2)c2ccc(F)c(F)c2[nH]1`: the figures for the IC50 (at Nitric oxide synthase 3; at Nitric oxide synthase 1; in data set [1]) were 13 µM, 0.15 µM and 0.014 µM, respectively. Besides, the Ratio IC50 came to 1000 in the data set filed under Homo sapiens and 11 in data set [2].
Broadly, the half-life is how long it takes for the measured level to halve. With `Cn1ncc2c(N(Cc3cc(=O)[nH]c4c(F)c(F)ccc34)c3cccc(Cl)c3)ncnc21`, the IC50 amounted to 8.3 µM at Nitric oxide synthase 3, 0.062 µM at Nitric oxide synthase 1 and 0.011 µM in data set [1]. Besides, the Ratio IC50 in the data set filed under Homo sapiens was determined as 730. The half-life in data set [4] is below 30 min.
In the case of `Cc1ccccc1CN(Cc1cc(=O)[nH]c2c(F)c(F)ccc12)c1cnccn1`, the IC50 at Nitric oxide synthase 3 came to 13 µM; on Nitric oxide synthase 1 it was 0.046 µM; in data set [1], 0.01 µM. In addition, the figures for the Ratio IC50 (in the data set filed under Homo sapiens; in data set [2]) were 1300 and 5, respectively.
`Cc1nccc(N(Cc2cc(=O)[nH]c3c(F)c(F)ccc23)c2cccc(Cl)c2)n1`: the IC50 on Nitric oxide synthase 3 came to 7.5 µM; on Nitric oxide synthase 1 it was 0.213 µM; in data set [1], 0.033 µM. Also, the figures for the Ratio IC50 (in the data set listed under Homo sapiens; in data set [2]) were 230 and 7, respectively. Besides, in the data set on Mus musculus, the Activity worked out at 55%. The same molecule came in with a half-life in data set [4] of 90 min.
Regarding `O=c1cc(CN(c2ccncc2)c2cccc(Cl)c2)c2ccc(F)c(F)c2[nH]1`, the results for the 50% inhibitory concentration (IC50) (at Nitric oxide synthase 3; at Nitric oxide synthase 1; in data set [1]) were 23 µM, 0.24 µM and 0.13 µM, respectively. Besides, the Ratio IC50 in the data set listed under Homo sapiens was determined as 170; in data set [2], 2.
As to `O=c1cc(CN(c2ccccc2)c2cccc(Cl)c2)c2ccc(F)c(F)c2[nH]1`, the concentration for half-maximal inhibition (IC50) at Nitric oxide synthase 3 is above 30 µM; in data set [1] it was 1.5 µM. The Ratio IC50 in the data set listed under Homo sapiens was above 20. Besides, in data set [3], the inhibition was below 50%.
Turning to `Cc1cccnc1N(Cc1cc(=O)[nH]c2c(F)c(F)ccc12)c1cccc(Cl)c1`, the concentration for half-maximal inhibition (IC50) was above 30 µM at Nitric oxide synthase 3 and 0.35 µM in data set [1]. In addition, the Ratio IC50 in the data set listed under Homo sapiens is above 85. For the same molecule, the inhibition in data set [3] was below 50%.
`O=c1cc(CN(Cc2ccccc2Cl)c2cnccn2)c2ccc(F)c(F)c2[nH]1`: the values for the half-maximal inhibitory concentration (IC50) (at Nitric oxide synthase 3; on Nitric oxide synthase 1; in data set [1]) were 12 µM, 0.06 µM and 0.012 µM, respectively. The Ratio IC50 is 1000 in the data set listed under Homo sapiens and 5 in data set [2].
Take `O=c1cc(CN(Cc2ccc(Cl)cc2)c2cnccn2)c2ccc(F)c(F)c2[nH]1`: the IC50 at Nitric oxide synthase 3 turned out to be 7.1 µM; at Nitric oxide synthase 1, 0.12 µM; in data set [1], 0.077 µM. The Ratio IC50 in the data set filed under Homo sapiens came out at 90; in data set [2], 2. In data set [4], this molecule had a half-life below 20 min.
Regarding `O=c1cc(CN(Cc2cccc(Cl)c2)c2cnccn2)c2ccc(F)c(F)c2[nH]1`, the IC50 on Nitric oxide synthase 3 amounted to 8.3 µM; at Nitric oxide synthase 1, 0.33 µM; in data set [1], 0.22 µM. Moreover, the Ratio IC50 turned out to be 40 in the data set listed under Homo sapiens and 2 in data set [2]. Besides, in data set [4], the half-life is below 20 min.
For `CN(C)c1cc(N(Cc2cc(=O)[nH]c3c(F)c(F)ccc23)c2cccc(Cl)c2)ncn1`, the values for the concentration for half-maximal inhibition (IC50) (at Nitric oxide synthase 3; on Nitric oxide synthase 1; in data set [1]) were above 30 µM, 0.5 µM and 0.028 µM, respectively. For the same molecule, the results for the Ratio IC50 (in the data set filed under Homo sapiens; in data set [2]) were above 1000 and 20, respectively. Further, the inhibition in data set [3] was below 50%.
Turning to `O=c1cc(CN(c2cccc(Cl)c2)c2ncccn2)c2ccc(F)c(F)c2[nH]1`, the IC50 on Nitric oxide synthase 3 came out at 5.5 µM; on Nitric oxide synthase 1, 0.069 µM; in data set [1], 0.013 µM. The figures for the Ratio IC50 (in the data set filed under Homo sapiens; in data set [2]) were 425 and 5, respectively.
For `O=c1cc(CN(Cc2ccccn2)c2cnccn2)c2ccc(F)c(F)c2[nH]1`, the IC50 at Nitric oxide synthase 3 was found to be 11 µM; at Nitric oxide synthase 1 it was 0.44 µM; in data set [1], 0.078 µM. Further, the figures for the Ratio IC50 (in the data set listed under Homo sapiens; in data set [2]) were 140 and 6, respectively. This molecule yielded a half-life in data set [4] below 20 min.
Regarding `O=c1cc(CN(c2cncnc2)c2cccc(Cl)c2)c2ccc(F)c(F)c2[nH]1`, the IC50 on Nitric oxide synthase 3 came out at 79 µM; on Nitric oxide synthase 1, 1.6 µM; in data set [1], 0.21 µM. Besides, the Ratio IC50 in the data set listed under Homo sapiens turned out to be 375; in data set [2] it was 8.
Regarding `Fc1ccc2c(CN(c3cccc(Cl)c3)c3ncccn3)cncc2c1F`, the Ratio IC50 in the data set filed under Homo sapiens is above 1000. Further, the IC50 in data set [1] was found to be 0.2 µM.
Regarding `CN(C)c1nccc(N(Cc2cc(=O)[nH]c3c(F)c(F)ccc23)c2cccc(Cl)c2)n1`, the half-maximal inhibitory concentration (IC50) on Nitric oxide synthase 3 was above 30 µM; in data set [1], 1.3 µM. In the data set filed under Homo sapiens, the Ratio IC50 was above 20. In addition, the inhibition in data set [3] is below 50%.
As to `O=c1cc(CN(c2cccc(Cl)c2)c2cccnn2)c2ccc(F)c(F)c2[nH]1`, the IC50 on Nitric oxide synthase 3 turned out to be 21 µM; on Nitric oxide synthase 1, 0.36 µM; in data set [1], 0.043 µM. The Ratio IC50 was found to be 500 in the data set filed under Homo sapiens and 8 in data set [2].

The record behind these values is ChEMBL document CHEMBL1944593, “Heteroaromatic-aminomethyl quinolones: potent and selective iNOS inhibitors” (Bioorg Med Chem Lett, 2012).
